pIC50: −log10 of the molar value. “And” between values parts separate entries of the source, which are not always exact repeats. Equal values may be shown once. “Also recorded” adds a separate entry of the source. In the oligonucleotide strings, read from the 5' end, every base follows the letter of its sugar. An asterisk marks phosphorothioate; unmarked linkages are phosphodiester. Other units and linkages are bracketed, terminal groups are in braces. A string of capitals states the bases alone. e = 2'-O-(2-methoxyethyl) (MOE); [5mC] = 5-methylcytosine; d = 2'-deoxy (DNA)
Key:
human TGF-beta1 mRNA [1] = assay: Dose-dependent confirmation of antisense inhibition of human TGF-beta1 in HuVEC cells after large-scale synthesis, Lipofectamine 2000, 0.007-15 nM (Example 5); type: cell-based; settings: for percent inhibition of TGF-beta1: Lipofectamine 2000
Experimental: Cells were plated at a density of 5,000 cells per well and transfected using Lipofectamine™ 2000 reagent with 0.007 nM, 0.021 nM, 0.062 nM, 0.185 nM, 0.556 nM, 1.667 nM, 5 nM, and 15 nM concentrations of antisense oligonucleotide for 4 hours, as specified in Table 5. After a recovery period of approximately 16 hours, RNA was isolated from the cells and TGF-beta1 mRNA levels were measured by quantitative real-time PCR. Human TGF-beta1 primer probe set RTS 2980 was used to measure mRNA levels. TGF-beta1 mRNA levels were adjusted according to total RNA content, as measured by RIBOGREEN®. Results are presented as percent inhibition of TGF-beta1, relative to untreated control cells.

human TGF-beta1 mRNA [2] = assay: Antisense inhibition of human TGF-beta1 mRNA in HuVEC cells, single 10 nM dose, Lipofectamine 2000 (Example 2); type: cell-based
Procedure, shortened: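 Percent inhibition relative to untreated controls, from qRT-PCR of mRNA corrected for total RNA (RIBOGREEN). Cells were exposed 4 h to 10 nM phosphorothioate 2-13-5 MOE gapmers with Lipofectamine 2000 at 5,000 cells/well. RNA was harvested after roughly 24 h recovery.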

human TGF-beta1 mRNA [3] = assay: Dose-dependent antisense inhibition of human TGF-beta1 in HuVEC cells, Lipofectamine 2000, 0.3292-80 nM, comparison with oligos of U.S. Pat. No. 6,436,909 (Example 4); type: cell-based
Experimental: The dose-dependent antisense inhibition potential of these gapmers was compared with that of Oligo IDs 104992 and 1138498 from U.S. Pat. No. 6,436,909. Cells were plated at a density of 5,000 cells per well and transfected using Lipofectamine™ 2000 reagent with 0.3292 nM, 0.9877 nM, 2.963 nM, 8.8889 nM, 26.6667 nM, and 80 nM concentrations of antisense oligonucleotide for 4 hours, as specified in Table 4. After a recovery period of approximately 16 hours, RNA was isolated from the cells and TGF-beta1 mRNA levels were measured by quantitative real-time PCR. Human TGF-beta1 primer probe set RTS 2980 was used to measure mRNA levels. TGF-beta1 mRNA levels were adjusted according to total RNA content, as measured by RIBOGREEN®. Results are presented as percent inhibition of TGF-beta1, relative to untreated control cells. […] All the antisense oligonucleotides in Table 4 target human TGF-beta1 mRNA (SEQ ID NO: 1).

human TGF-beta1 mRNA [4] = assay: Dose-dependent confirmation of antisense inhibition of human TGF-beta1 in HuVEC cells, electroporation (Example 6); type: cell-based
Experimental: The gapmers from Example 5 (see Table 5) were also tested at various doses in HuVEC cells using electroporation as the transfection reagent. Cells were plated at a density of 20,000 cells per well and transfected using electroporation with 0.15625 nM, 0.3125 nM, 0.625 nM, 1.25 nM, 2.5 nM, 5 nM, 10 nM, and 20 nM concentrations of antisense oligonucleotide for 4 hours, as specified in Table 6. After a recovery period of approximately 16 hours, RNA was isolated from the cells and TGF-beta1 mRNA levels were measured by quantitative real-time PCR. TGF-beta1 mRNA levels were adjusted according to total RNA content, as measured by RIBOGREEN®. Results are presented as percent inhibition of TGF-beta1, relative to untreated control cells.

human TGF-beta1 mRNA [5] = assay: Dose-dependent antisense inhibition of human TGF-beta1 in HuVEC cells, Lipofectamine 2000, 0.9375-30 nM (Example 3); type: cell-based; settings: Lipofectamine 2000
Experimental: Cells were plated at a density of 5,000 cells per well and transfected using Lipofectamine™ 2000 reagent with 0.9375 nM, 1.875 nM, 3.75 nM, 7.5 nM, 15 nM, and 30 nM concentrations of antisense oligonucleotide for 4 hours, as specified in Table 3. After a recovery period of approximately 16 hours, RNA was isolated from the cells and TGF-beta1 mRNA levels were measured by quantitative real-time PCR. Human TGF-beta1 primer probe set RTS 2980 (forward sequence CTCTCCGACCTGCCACAGA, SEQ ID NO: 160; reverse sequence […], SEQ ID NO: 53; probe sequence CCCTATTCAAGACCACCCACCTTCTGGTX, SEQ ID NO: 161) was used to measure mRNA levels. TGF-beta1 mRNA levels were adjusted according to total RNA content, as measured by RIBOGREEN®. Results are presented as percent inhibition of TGF-beta1, relative to untreated control cells.

BALB/c mice = assay: Tolerability in BALB/c mice: plasma transaminases ALT and AST (Example 7); settings: for aspartate transaminase levels: plasma
Experimental: These gapmer oligonucleotides were designed to target human TGF-beta1 and have varying degrees of mismatch with murine TGF-beta1 sequence, as shown in Table 1. Oligo ID Nos. 413982 and 414040 have greater than 3 mismatches to the murine TGF-beta1 sequence. Oligo ID No. 414035 has 2 mismatches to murine TGF-beta1. Oligo ID No. 414036 has no mismatches to murine TGF-beta1.
BALB/c mice were injected with 25 mg/kg or 50 mg/kg of Oligo ID Nos. 413982, 414035, 414036, or 414040 twice a week for 4 weeks. A control group of mice was injected with phosphate buffered saline (PBS) twice a week for 4 weeks. Plasma transaminase levels were evaluated bi-weekly.
To evaluate the impact of TGF-beta1 antisense oligonucleotides on the hepatic function of mice described above, plasma concentrations of transaminases were measured using an automated clinical chemistry analyzer (Hitachi Olympus AU400e, Melville, N.Y.).

[6] = system: bleomycin-induced skin fibrosis in C57BL/6 mice; assay: Bleomycin-induced murine model of skin fibrosis: skin thickness and breaking strength (Example 10); type: in vivo, mouse; settings: for bleomycin-induced skin fibrosis and thickening: C57BL/6 mice, 5 mg intradermally twice a week, Day 18
Experimental: The ability of a TGF-beta1 ASO to reduce the induction of skin fibrosis in a bleomycin-induced model of dermal fibrosis was evaluated.
Two groups of 8 C57BL/6 mice each were treated with bleomycin every other day for 19 days. Bleomycin, at a concentration of 10 mg/mL in PBS and at a volume of 0.1 mL, was injected subcutaneously into the shaved backs of the mice. The injection site was divided into 4 quadrants. The 100 μL volume of bleomycin was divided into four 25 μL aliquots injected at 90 degree intervals, to the upper left, upper right, lower left, and lower right “quadrants”.
Each of the two groups was treated intradermally with PBS (vehicle) or a 5 mg dose of a TGF-beta1 antisense oligonucleotide (Oligo ID 433849) twice a week, starting from day 1 of bleomycin administration. Animals were sacrificed on Day 18 of the study. Skin thickness was measured by skin calipers on 6-mm punch biopsy specimens obtained from the upper back of the mice. Breaking strength of the skin was measured on the 6-mm punch biopsy specimens using a tensiometer (Series EG2 digital force gauge; Mark-10, Copiague, N.Y.), and the point of maximal stress before tearing of the biopsy specimen was recorded. All measurements were undertaken in a blinded manner.

## 414040 (antisense e[5mC]*eT*d[5mC]*dT*d[5mC]*dT*d[5mC]*d[5mC]*dA*dT*d[5mC]*dT*dT*dT*dA*eA*eT*eG*eG*eG) [compound 414040]
Human TGF-beta1 mRNA [1]; 0.007 nM
  percent inhibition of TGF-beta1: 19%
Human TGF-beta1 mRNA [1]; 0.021 nM
  percent inhibition of TGF-beta1: 45%
Human TGF-beta1 mRNA [1]; 0.062 nM
  percent inhibition of TGF-beta1: 58%
Human TGF-beta1 mRNA [1]; 0.185 nM
  percent inhibition of TGF-beta1: 76%
Human TGF-beta1 mRNA [1]; 0.556 nM
  percent inhibition of TGF-beta1: 83%
Human TGF-beta1 mRNA [1]; 1.667 nM
  percent inhibition of TGF-beta1: 89%
Human TGF-beta1 mRNA [1]; 5 nM
  percent inhibition of TGF-beta1: 92%
Human TGF-beta1 mRNA [1]; 15 nM
  percent inhibition of TGF-beta1: 93%
Human TGF-beta1 mRNA [1]; Lipofectamine 2000, Example 5
  pIC50: 10.40
Human TGF-beta1 mRNA [2]; 10 nM oligonucleotide, HuVEC, relative to untreated control cells, gapmers targeted to SEQ ID NO: 1
  % inhibition: 90%
Human TGF-beta1 mRNA [2]; threshold lists of Oligo IDs, 10 nM
  inhibition of a TGF-beta1 mRNA: 60% and 65% and 70% and 75% and 80% and 85% and 90%
Human TGF-beta1 mRNA [3]; 0.3292 nM
  percent inhibition of TGF-beta1: 85%
Human TGF-beta1 mRNA [3]; 0.9877 nM
  percent inhibition of TGF-beta1: 90%
Human TGF-beta1 mRNA [3]; 2.963 nM
  percent inhibition of TGF-beta1: 94%
Human TGF-beta1 mRNA [3]; 8.8889 nM
  percent inhibition of TGF-beta1: 94%
Human TGF-beta1 mRNA [3]; 26.6667 nM
  percent inhibition of TGF-beta1: 94%
Human TGF-beta1 mRNA [3]; 80.0 nM
  percent inhibition of TGF-beta1: 93%
Human TGF-beta1 mRNA [4]; 0.15625 nM oligonucleotide
  percent inhibition of TGF-beta1 mRNA relative to untreated control cells: 57%
Human TGF-beta1 mRNA [4]; 0.3125 nM oligonucleotide
  percent inhibition of TGF-beta1 mRNA relative to untreated control cells: 68%
Human TGF-beta1 mRNA [4]; 0.625 nM oligonucleotide
  percent inhibition of TGF-beta1 mRNA relative to untreated control cells: 81%
Human TGF-beta1 mRNA [4]; 1.25 nM oligonucleotide
  percent inhibition of TGF-beta1 mRNA relative to untreated control cells: 91%
Human TGF-beta1 mRNA [4]; 2.5 nM oligonucleotide
  percent inhibition of TGF-beta1 mRNA relative to untreated control cells: 93%
Human TGF-beta1 mRNA [4]; 5.00 nM oligonucleotide
  percent inhibition of TGF-beta1 mRNA relative to untreated control cells: 95%
Human TGF-beta1 mRNA [4]; 10.00 nM oligonucleotide
  percent inhibition of TGF-beta1 mRNA relative to untreated control cells: 94%
Human TGF-beta1 mRNA [4]; 20 nM oligonucleotide
  percent inhibition of TGF-beta1 mRNA relative to untreated control cells: 94%
Human TGF-beta1 mRNA [5]; 0.9375 nM
  percent inhibition of TGF-beta1: 72%
Human TGF-beta1 mRNA [5]; 1.875 nM
  percent inhibition of TGF-beta1: 83%
Human TGF-beta1 mRNA [5]; 3.75 nM
  percent inhibition of TGF-beta1: 90%
Human TGF-beta1 mRNA [5]; 7.5 nM
  percent inhibition of TGF-beta1: 94%
Human TGF-beta1 mRNA [5]; 15 nM
  percent inhibition of TGF-beta1: 95%
Human TGF-beta1 mRNA [5]; 30 nM
  percent inhibition of TGF-beta1: 95%
BALB/c mice; 25 mg/kg twice a week, Week 2
  alanine transaminase levels: 178 IU/L
  aspartate transaminase levels: 128 IU/L
BALB/c mice; 25 mg/kg twice a week, Week 4
  alanine transaminase levels: 2248 IU/L
  aspartate transaminase levels: 1405 IU/L
BALB/c mice; 50 mg/kg twice a week, Week 2
  alanine transaminase levels: 837 IU/L
  aspartate transaminase levels: 529 IU/L
BALB/c mice; 50 mg/kg twice a week, Week 4
  alanine transaminase levels: 4997 IU/L
  aspartate transaminase levels: 2237 IU/L
BALB/c mice; compared to placebo (PBS) controls
  increase in ALT levels: > 160 fold and 166 fold

## Oligo ID 433849: rat specific TGF-beta1 antisense oligonucleotide; SEQ ID NO. 166 (antisense GTCCTTAAATACAGCCCCGG; listed as DNA, chemistry not given here) [rat specific TGF-beta1 antisense oligonucleotide; 166]
[6]
  bleomycin-induced skin fibrosis and thickening: significantly reduced
[6]; listed as TGF-beta1 ASO
  bleomycin-induced skin fibrosis and thickening: significantly reduced; also recorded: reduced the severity

## bleomycin [reference compound]
[6]; bleomycin-treated mice, from 30 mm
  skin thickness: 40-45 mm
[6]; bleomycin-treated mice, untreated skin typically 0.2 kg tension
  breaking strength of skin: approximately 0.47 kg

— patent US20110172296A1, “MODULATION OF TRANSFORMING GROWTH FACTOR-BETA 1 EXPRESSION” (priority 2010, published 2011)
